Activity calls are given as the source filed them. The rule behind the calls is not given here.
What was measured:
Acetylcholinesterase [1] = target: T1, Acetylcholinesterase (Electrophorus electricus, UniProt O42275)
Description: (§1) Inhibition of electric eel AChE by Ellman's method

Cholinesterase [2] = target: T2, Cholinesterase (Equus caballus, UniProt P81908)
Description: (§2) Inhibition of horse serum BChE by Ellman's method

[3] = target: Cholinesterase (Equus caballus) (UniProt P81908); test: Inhibition of horse serum BChE at 100 uM by Ellman's method
Acetylcholinesterase [4] = target: T1, Acetylcholinesterase; remark: listed apart in the source
Description: as §1

Cholinesterase [5] = target: T2, Cholinesterase; remark: listed apart in the source
Description: as §2

[6] = target: Acetylcholinesterase (Electrophorus electricus) (UniProt O42275); test: Mixed type inhibition of electric eel AChE by Ellman's method
Acetylcholinesterase (Electrophorus electricus), sequence (O42275 24-633 limits assumed): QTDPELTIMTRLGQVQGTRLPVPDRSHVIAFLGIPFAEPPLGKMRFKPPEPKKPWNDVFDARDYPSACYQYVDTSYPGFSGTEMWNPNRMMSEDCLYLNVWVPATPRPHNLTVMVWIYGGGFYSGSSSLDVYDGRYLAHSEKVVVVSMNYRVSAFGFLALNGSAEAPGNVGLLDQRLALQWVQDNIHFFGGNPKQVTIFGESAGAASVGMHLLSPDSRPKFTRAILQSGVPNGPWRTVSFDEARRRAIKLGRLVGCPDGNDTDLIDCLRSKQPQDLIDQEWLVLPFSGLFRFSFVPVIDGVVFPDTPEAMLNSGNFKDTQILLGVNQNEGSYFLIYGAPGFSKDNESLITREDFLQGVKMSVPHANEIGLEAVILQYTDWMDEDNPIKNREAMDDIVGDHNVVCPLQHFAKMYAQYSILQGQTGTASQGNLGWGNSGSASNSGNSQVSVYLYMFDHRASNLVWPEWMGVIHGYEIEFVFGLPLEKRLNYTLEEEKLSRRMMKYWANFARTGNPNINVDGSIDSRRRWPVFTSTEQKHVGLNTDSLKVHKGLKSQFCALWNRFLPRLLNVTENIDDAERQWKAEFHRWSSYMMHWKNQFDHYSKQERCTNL

[7] = target: Cholinesterase (Equus caballus) (UniProt P81908); test: Mixed type inhibition of horse serum BChE by Ellman's method
[8] = target: Cholinesterase (Equus caballus) (UniProt P81908); test: Inhibition of horse serum BChE at 40 uM by Ellman's method
[9] = target: Cholinesterase (Equus caballus) (UniProt P81908); test: Inhibition of horse serum BChE at 15 uM by Ellman's method
[10] = target: Acetylcholinesterase (Electrophorus electricus) (UniProt O42275); test: Inhibition of electric eel AChE at 100 uM by Ellman's method
Cholinesterase [11] = target: T2, Cholinesterase; test: Inhibition of horse serum BChE by Lineweaver-Burke plot
[12] = target: Cholinesterase (Equus caballus) (UniProt P81908); test: Inhibition of horse serum BChE at 70 uM by Ellman's method
[13] = target: Cholinesterase (Equus caballus) (UniProt P81908); test: Inhibition of horse serum BChE at 30 uM by Ellman's method

T1 sequence (O42275 whole entry): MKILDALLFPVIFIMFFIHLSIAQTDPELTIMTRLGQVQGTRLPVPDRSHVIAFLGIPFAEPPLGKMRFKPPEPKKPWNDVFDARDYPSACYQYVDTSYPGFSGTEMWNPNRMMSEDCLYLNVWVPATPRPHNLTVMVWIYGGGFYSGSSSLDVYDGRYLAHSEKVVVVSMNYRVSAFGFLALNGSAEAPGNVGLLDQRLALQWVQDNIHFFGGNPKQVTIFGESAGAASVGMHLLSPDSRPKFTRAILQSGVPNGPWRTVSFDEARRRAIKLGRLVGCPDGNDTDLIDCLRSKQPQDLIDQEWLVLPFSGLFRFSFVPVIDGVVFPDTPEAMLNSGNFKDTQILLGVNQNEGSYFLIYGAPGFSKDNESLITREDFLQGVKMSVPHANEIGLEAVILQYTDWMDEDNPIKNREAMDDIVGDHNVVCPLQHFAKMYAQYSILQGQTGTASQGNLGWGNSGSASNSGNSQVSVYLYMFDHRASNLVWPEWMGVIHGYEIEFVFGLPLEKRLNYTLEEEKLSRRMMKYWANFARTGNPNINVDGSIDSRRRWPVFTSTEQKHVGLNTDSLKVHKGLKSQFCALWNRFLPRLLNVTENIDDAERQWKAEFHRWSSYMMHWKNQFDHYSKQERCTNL
T2 sequence (P81908 whole entry): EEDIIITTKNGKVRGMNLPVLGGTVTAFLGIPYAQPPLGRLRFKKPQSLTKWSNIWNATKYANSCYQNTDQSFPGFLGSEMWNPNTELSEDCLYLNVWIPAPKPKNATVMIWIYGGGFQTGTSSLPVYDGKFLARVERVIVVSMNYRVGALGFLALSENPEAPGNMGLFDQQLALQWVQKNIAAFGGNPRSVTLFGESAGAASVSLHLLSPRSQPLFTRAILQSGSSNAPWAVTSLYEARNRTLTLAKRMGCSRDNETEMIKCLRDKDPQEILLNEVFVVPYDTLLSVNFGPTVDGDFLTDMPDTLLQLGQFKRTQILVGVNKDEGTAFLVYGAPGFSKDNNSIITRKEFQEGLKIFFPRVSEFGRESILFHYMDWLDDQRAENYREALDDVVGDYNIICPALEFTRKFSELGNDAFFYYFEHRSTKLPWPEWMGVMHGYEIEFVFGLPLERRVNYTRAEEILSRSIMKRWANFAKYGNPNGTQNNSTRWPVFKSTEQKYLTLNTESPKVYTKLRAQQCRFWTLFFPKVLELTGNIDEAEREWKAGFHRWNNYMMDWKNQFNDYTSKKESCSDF
Cholinesterase (Equus caballus), sequence (P81908 whole entry): as above

SMILES | IC50 (Acetylcholinesterase [1]) | IC50 (Cholinesterase [2]) | IC50 (Acetylcholinesterase [4]) | IC50 (Cholinesterase [5]) | also measured
CC(C)c1ccc(C(=O)CC(NCCCCCCCCNC(CC(=O)c2ccc(C(C)C)cc2C(C)C)C(=O)Nc2ccccc2)C(=O)Nc2ccccc2)c(C(C)C)c1 (mixture of isomers) | ND(Insoluble) | ND(Insoluble) |  |  | 
O=C(CC(NCCCCCCCCNC(CC(=O)c1ccc(Cl)cc1)C(=O)Nc1ccccc1)C(=O)Nc1ccccc1)c1ccc(Cl)cc1 (mixture of isomers) | ND(Insoluble) | ND(Insoluble) |  |  | 
COc1ccc(C(=O)CC(NCCCCCCCCNC(CC(=O)c2ccc(OC)cc2)C(=O)Nc2ccccc2)C(=O)Nc2ccccc2)cc1 (mixture of isomers) | ND(Insoluble) | ND(Insoluble) |  |  | 
Cc1ccc(C)c(C(=O)CC(NCCCCCCCCNC(CC(=O)c2cc(C)ccc2C)C(=O)Nc2ccccc2)C(=O)Nc2ccccc2)c1 (mixture of isomers) | ND(Insoluble) | ND(Insoluble) |  |  | 
CC(C)c1ccc(C(=O)CC(NCCCCCCCCNC(CC(=O)c2ccc(C(C)C)cc2)C(=O)Nc2ccccc2)C(=O)Nc2ccccc2)cc1 (mixture of isomers) | ND(Insoluble) | ND(Insoluble) |  |  | 
O=C(CC(NCCCCCCCCNC(CC(=O)c1ccc2c(c1)CCCC2)C(=O)Nc1ccccc1)C(=O)Nc1ccccc1)c1ccc2c(c1)CCCC2 (mixture of isomers) | ND(Insoluble) | ND(Insoluble) |  |  | 
O=C(CC(C(=O)Nc1ccccc1)N1CCOCC1)c1ccccc1 (racemic) |  |  | > 100 µM |  | inhibition [3]: 21.6%
Cc1ccc(C)c(C(=O)CC(C(=O)Nc2ccccc2)N2CCCCC2)c1 (racemic) |  |  | > 10 µM | 17.2 µM | 
COc1ccc(C(=O)CC(C(=O)Nc2ccccc2)n2ccnc2)cc1 (racemic) |  |  | 7.85 µM | 30.4 µM | 
CC(C)c1ccc(C(=O)CC(C(=O)Nc2ccccc2)n2ccnc2)c(C(C)C)c1 (racemic) |  |  |  | > 20 µM | inhibition [6]: Active; inhibition [7]: Active
O=C(CC(C(=O)Nc1ccccc1)n1ccnc1)c1ccc2c(c1)CCCC2 (racemic) |  |  |  |  | inhibition [8]: 17%
O=C(CC(C(=O)Nc1ccccc1)N1CCCCC1)c1ccc(Cl)cc1 (racemic) | ND(Insoluble) | ND(Insoluble) |  |  | 
CC(C)c1ccc(C(=O)CC(C(=O)Nc2ccccc2)N2CCCCC2)cc1 (racemic) |  |  |  | 7.06 µM | 
O=C(CC(C(=O)Nc1ccccc1)N1CCCCC1)c1ccc2c(c1)CCCC2 (racemic) |  |  |  |  | inhibition [9]: 21.5%
Cc1ccc(C)c(C(=O)CC(C(=O)Nc2ccccc2)N2CCOCC2)c1 (racemic) |  |  | > 100 µM | 34.1 µM | 
O=C(CC(C(=O)Nc1ccccc1)N1CCOCC1)c1ccc(Cl)cc1 (racemic) | ND(Insoluble) | ND(Insoluble) |  |  | 
COc1ccc(C(=O)CC(C(=O)Nc2ccccc2)N2CCOCC2)cc1 (racemic) |  |  |  | > 100 µM | inhibition [10]: 38.7%
CC(C)c1ccc(C(=O)CC(C(=O)Nc2ccccc2)N2CCOCC2)cc1 (racemic) |  |  | > 100 µM |  | inhibition [8]: 27.2%
CC(C)c1ccc(C(=O)CC(C(=O)Nc2ccccc2)N2CCOCC2)c(C(C)C)c1 (racemic) |  |  |  | 2.48 µM | inhibition [6]: Active; inhibition [7]: Active; Ki (Cholinesterase [11]): 3.18 µM
Cc1ccc(C)c(C(=O)CC(C(=O)Nc2ccccc2)n2ccnc2)c1 (racemic) |  |  | 27.9 µM |  | inhibition [12]: 42%
CC(C)c1ccc(C(=O)CC(C(=O)Nc2ccccc2)N2CCCCC2)c(C(C)C)c1 (racemic) |  |  |  |  | inhibition [9]: 39.9%
O=C(CC(C(=O)Nc1ccccc1)N1CCOCC1)c1ccc2c(c1)CCCC2 (racemic) |  |  | > 30 µM |  | inhibition [8]: 13%
CC(C)c1ccc(C(=O)CC(C(=O)Nc2ccccc2)n2ccnc2)cc1 (racemic) |  |  |  |  | inhibition [13]: 10%
COc1ccc(C(=O)CC(C(=O)Nc2ccccc2)N2CCCCC2)cc1 (racemic) |  |  | > 10 µM | > 40 µM | 
O=C(CC(C(=O)Nc1ccccc1)N1CCCCC1)c1ccccc1 (racemic) |  |  | > 100 µM |  | inhibition [3]: 34.8%
O=C(CC(C(=O)Nc1ccccc1)n1ccnc1)c1ccc(Cl)cc1 (racemic) | ND(Insoluble) | ND(Insoluble) |  |  | 

Reference: ChEMBL document CHEMBL1156836, “4-Aryl-4-oxo-N-phenyl-2-aminylbutyramides as acetyl- and butyrylcholinesterase inhibitors. Preparation, anticholinesterase activity, docking study, and 3D structure-activity relationship based on molecular interaction fields” (Bioorg Med Chem, 2010)
